± gives the uncertainty stated by the source.
Assays:
[1] = xn = mol fraction of the nth substance listed
[2] = 101 kPa

Cc1ccccn1 + O
viscosity [mPa·s], [1]
Conditions | 298.15 K | 303.15 K | 313.15 K | 323.15 K
101 kPa, x1 = 0.02168 | 1.207 ± 0.02 | – | – | –
101 kPa, x1 = 0.05477 | 1.711 ± 0.028 | – | – | –
101 kPa, x1 = 0.1594 | 2.779 ± 0.045 | – | – | –
101 kPa, x1 = 0.2977 | 3.166 ± 0.051 | – | – | –
101 kPa, x1 = 0.6247 | 1.736 ± 0.028 | – | – | –
101.3 kPa, x1 = 0.1 | – | 1.916 ± 0.061 | 1.467 ± 0.047 | 1.168 ± 0.037
101.3 kPa, x1 = 0.2 | – | 2.506 ± 0.077 | 1.839 ± 0.056 | 1.42 ± 0.044
101.3 kPa, x1 = 0.3 | – | 2.594 ± 0.077 | 1.909 ± 0.057 | 1.465 ± 0.043
101.3 kPa, x1 = 0.3999 | – | 2.364 ± 0.068 | 1.757 ± 0.05 | 1.362 ± 0.039
101.3 kPa, x1 = 0.4997 | – | 1.982 ± 0.055 | 1.515 ± 0.042 | 1.201 ± 0.033
101.3 kPa, x1 = 0.5999 | – | 1.554 ± 0.042 | 1.237 ± 0.033 | 1.008 ± 0.027
101.3 kPa, x1 = 0.7 | – | 1.234 ± 0.032 | 1.016 ± 0.026 | 0.8611 ± 0.022
101.3 kPa, x1 = 0.8146 | – | 0.9988 ± 0.025 | 0.8497 ± 0.021 | 0.7336 ± 0.018
101.3 kPa, x1 = 0.8999 | – | 0.8499 ± 0.021 | 0.7339 ± 0.018 | 0.6501 ± 0.016

ClC=C(Cl)Cl + COc1ccccc1
[1], 303.15 K, 101.3 kPa
Conditions | viscosity [mPa·s]
x2 = 0.1234 | 0.523 ± 0.009
x2 = 0.1791 | 0.541 ± 0.009
x2 = 0.2335 | 0.561 ± 0.009
x2 = 0.2818 | 0.577 ± 0.01
x2 = 0.4018 | 0.623 ± 0.01
x2 = 0.5204 | 0.672 ± 0.011
x2 = 0.5501 | 0.682 ± 0.011
x2 = 0.648 | 0.73 ± 0.012
x2 = 0.7243 | 0.765 ± 0.012
x2 = 0.8135 | 0.814 ± 0.013

ClC=C(Cl)Cl + COCCO
viscosity [mPa·s], [1], 101.33 kPa
Conditions | x1 = 0.1175 | x1 = 0.2132 | x1 = 0.3211 | x1 = 0.4746 | x1 = 0.5328 | x1 = 0.6149 | x1 = 0.7063 | x1 = 0.8042 | x1 = 0.9056
303.15 K | 1.317 ± 0.034 | 1.181 ± 0.031 | 1.041 ± 0.028 | 0.86 ± 0.023 | 0.804 ± 0.022 | 0.731 ± 0.02 | 0.659 ± 0.019 | 0.597 ± 0.017 | 0.546 ± 0.016
313.15 K | 1.074 ± 0.029 | 0.981 ± 0.026 | 0.88 ± 0.024 | 0.746 ± 0.021 | 0.703 ± 0.02 | 0.648 ± 0.018 | 0.591 ± 0.017 | 0.543 ± 0.016 | 0.504 ± 0.015

[Cl-].[Na+] + OCCO
[1], 101 kPa, x1 = 0.0588
Conditions | viscosity [mPa·s]
303 K | 20.88 ± 0.29
313 K | 14.11 ± 0.19
323 K | 9.987 ± 0.13

CCCCC(=O)[O-].CC[NH+](CC)CCO
[2]
Conditions | viscosity [mPa·s]
293.15 K | 62.45 ± 1.1
298.15 K | 47.75 ± 0.81
303.15 K | 37.12 ± 0.63
308.15 K | 29.31 ± 0.5
313.15 K | 23.48 ± 0.4
318.15 K | 19.07 ± 0.32
323.15 K | 15.68 ± 0.27

O=C1CCCC1 + CCCCOC(C)=O
viscosity [mPa·s], [1], 101 kPa
Conditions | x2 = 0.0703 | x2 = 0.1461 | x2 = 0.2264 | x2 = 0.3112 | x2 = 0.4036 | x2 = 0.4995 | x2 = 0.6079 | x2 = 0.7264 | x2 = 0.8541
298.15 K | 1.044 ± 0.014 | 1 ± 0.013 | 0.957 ± 0.013 | 0.913 ± 0.012 | 0.867 ± 0.012 | 0.826 ± 0.012 | 0.785 ± 0.011 | 0.749 ± 0.011 | 0.714 ± 0.011
303.15 K | 0.961 ± 0.013 | 0.921 ± 0.012 | 0.881 ± 0.012 | 0.84 ± 0.011 | 0.797 ± 0.011 | 0.758 ± 0.011 | 0.72 ± 0.01 | 0.686 ± 0.01 | 0.654 ± 0.01
308.15 K | 0.892 ± 0.012 | 0.856 ± 0.011 | 0.82 ± 0.011 | 0.783 ± 0.011 | 0.746 ± 0.01 | 0.71 ± 0.01 | 0.676 ± 0.01 | 0.645 ± 0.01 | 0.618 ± 0.009
313.15 K | 0.835 ± 0.011 | 0.8 ± 0.011 | 0.766 ± 0.01 | 0.732 ± 0.01 | 0.697 ± 0.01 | 0.662 ± 0.009 | 0.63 ± 0.009 | 0.6 ± 0.009 | 0.575 ± 0.009

NC1CCCCC1 + CC(C)CO
[1]
Conditions | viscosity [mPa·s]
293.15 K, 100 kPa, x2 = 0.1205 | 2.575 ± 0.064
298.15 K, 101 kPa, x1 = 0.0767 | 3.274 ± 0.037
298.15 K, 101 kPa, x1 = 0.1574 | 3.183 ± 0.036
298.15 K, 101 kPa, x1 = 0.3325 | 3.067 ± 0.035
298.15 K, 101 kPa, x1 = 0.4277 | 2.976 ± 0.034
298.15 K, 101 kPa, x1 = 0.5285 | 2.859 ± 0.033
298.15 K, 101 kPa, x1 = 0.6355 | 2.681 ± 0.031
298.15 K, 101 kPa, x1 = 0.7493 | 2.447 ± 0.028
298.15 K, 101 kPa, x1 = 0.8706 | 2.165 ± 0.025
308.15 K, 100 kPa, x2 = 0.6492 | 2.275 ± 0.063

NC1CCCCC1 + CCCCOC(C)=O
[1], 298.15 K, 101 kPa
Conditions | viscosity [mPa·s]
x1 = 0.1151 | 0.6149 ± 0.0053
x1 = 0.2265 | 0.6836 ± 0.0058
x1 = 0.3342 | 0.8301 ± 0.0069
x1 = 0.4385 | 1.032 ± 0.0083
x1 = 0.5394 | 1.253 ± 0.0098
x1 = 0.6373 | 1.455 ± 0.011
x1 = 0.7321 | 1.618 ± 0.012
x1 = 0.8241 | 1.734 ± 0.013
x1 = 0.9134 | 1.779 ± 0.013

ClC=C(Cl)Cl + ClC(Cl)(Cl)Cl
[1], 303.15 K, 101.33 kPa
Conditions | viscosity [mPa·s]
x1 = 0.2969 | 0.699 ± 0.1
x1 = 0.7481 | 0.555 ± 0.1
x1 = 0.7605 | 0.551 ± 0.1
x1 = 0.8498 | 0.539 ± 0.1
x1 = 0.9286 | 0.526 ± 0.1

C1COCCN1 + OCCO
viscosity [mPa·s], [1], 101 kPa
Conditions | 293.15 K | 303.15 K | 313.15 K | 323.15 K
x1 = 0.06476 | 23.01 ± 0.22 | – | – | –
x1 = 0.06828 | – | – | 9.851 ± 0.12 | –
x1 = 0.07 | 23.22 ± 0.22 | 15.77 ± 0.18 | 9.66 ± 0.12 | 7 ± 0.07
x1 = 0.2 | 24.69 ± 0.23 | 16.33 ± 0.19 | 10.32 ± 0.12 | 7.69 ± 0.08
x1 = 0.2273 | 24.37 ± 0.22 | – | – | –
x1 = 0.2296 | – | – | 10.49 ± 0.12 | –
x1 = 0.4 | 21.35 ± 0.19 | 14.19 ± 0.16 | 9.34 ± 0.1 | 7.13 ± 0.07
x1 = 0.4103 | 20.98 ± 0.19 | – | – | –
x1 = 0.4144 | – | – | 9.259 ± 0.11 | –
x1 = 0.6 | 11.83 ± 0.13 | 8.07 ± 0.09 | 6.02 ± 0.06 | 4.41 ± 0.05
x1 = 0.6173 | – | – | 6.339 ± 0.077 | –
x1 = 0.6201 | 11.78 ± 0.11 | – | – | –
x1 = 0.8601 | 4.454 ± 0.043 | – | – | –
x1 = 0.8629 | – | – | 2.391 ± 0.029 | –
x1 = 0.9 | 3.94 ± 0.05 | 2.92 ± 0.03 | 2.24 ± 0.02 | 1.72 ± 0.02

From the CheMixHub viscosity set
